Numbered stars: 1 amine (or outer) side, 2 acyl side, 3 side chain; on linkers, the order of the positions; unused ones are H or OH. Bridge positions count the residues as written; N and C are the ends. Square brackets hold non-standard residues; d marks the D form. Peptide text beside a SMILES is read from it. * marks the point of attachment. ξ: configuration not given here. ξOrn(4R-OH,5R-OH) = O=C(C(C[C@@H](O)[C@@H](O)N[*:3])N[*:1])[*:2]; ξhTyr(3S-OH,4S-OH) = NC(C(=O)O)[C@H](O)[C@@H](O)c1ccc(O)cc1; ξOrn(4,5-diOH) = O=C(C(CC(O)C(O)N[*:3])N[*:1])[*:2]; ξhTyr(βξ-OH,γξ-OH) = NC(C(=O)O)C(O)C(O)c1ccc(O)cc1; Benzoyl(4-octyloxy) = CCCCCCCCOc1ccc(C(=O)*)cc1; X3 = C[C@H]1CN([*:1])C(C(=O)[*:2])[C@H]1O; ξPro(3ξ-OH,4ξ-Me) = CC1CNC(C(=O)O)C1O; X2 = NC(=O)CC(O)C(N[*:1])C(=O)[*:2]; ξPro(4R-OH) = O=C(O)C1C[C@@H](O)CN1; X1 = CCC(C)CC(C)CCCCCCCCC(=O)*; Hyp = O=C(O)[CH]1C[CH](O)CN1; ξT = CC(O)C(N)C(=O)O
What was measured:
P. carinii [1] = experiment: Immunosuppressed rat study of P. carinii infection, two week treatment, lung cysts and parasite nuclei counted; assay type: in vivo, Sprague-Dawley rats; settings: dexamethasone-immunosuppressed rats; two weeks treatment; Compound IA 2 mg i.p. twice daily; TMP-SMZ in drinking water (208 mg TMP and 1.040 g SMZ/liter); controls 3.2 x 10⁸ - 1.5 x 10⁹
Procedure: In a representative study employing Compound IA in rats, nine male Sprague-Dawley rats weighing approximately 200 grams each, were immunosupressed by the addition of dexamethasone to the drinking water (2.0 mg/liter) for six weeks to induce the development of P. carinii infections. To enhance the infection the rats were also maintained on a low protein diet. At the beginning of the seventh week the rats were divided into three groups of three rats each. All three groups continued to receive dexamethasone in the drinking water and low protein diet throughout the remainder of the study. The rats in Group I were kept as untreated infected controls, those in Group II were injected intraperitoneally twice daily for two weeks with 0.5 ml of sterile dH₂O containing 2 mg of Compound IA, and those in Group III were treated with trimethoprim-sulfamethoxazole (TMP-SMZ) in the drinking water (208 mg TMP and 1.040 g of SMZ/liter) for two weeks, a known treatment for P. carinii infections. Two rats died early in the experiment. One was from group II (rat 72A) and the other from group III (rat 75A). It was not determined whether they died from Pneumocystis pneumonia. At the end of the two week treatment period (a total of eight weeks of immonosuppression) the animals were sacrificed and the lung tissue removed. […]

P. carinii [2] = experiment: Similar immunosuppressed rat study, 7 day treatment, cysts per lung counted; assay type: in vivo; settings: immunosuppressed rats; 2 mg/kg injected twice daily for 7 days; vehicle 10% DMSO
Procedure: A similar rat study was conducted to determine the antipneumocystis activity of 1-[(4R,5R)-4,5-dihydroxy-N²-[4-(octyloxy)benzoyl]-L-ii ornithine]echinocandin B (Compound IBii). After 6 weeks of immunosuppression the rats were injected twice daily for 7 days with vehicle alone. Compound IBii (2 mg/kg) or Compound IA (2 mg/kg) during which time immunosuppression was continued. At the end of the treatment period the animals were sacrificed and the number of cysts per lung determined. Compound IA reduced the number of cysts by >99% while Compound IBii reduced the cyst counts by approximately 84% (compared to the vehicle control, 10% DMSO).

Row | SMILES | number of cysts in the lungs (P. carinii [1]) | reduction of the number of cysts per lung compared to the vehicle control (P. carinii [2])
1 | CCC(C)CC(C)CCCCCCCCC(=O)NC1CC(O)C(O)NC(=O)C2C(O)C(C)CN2C(=O)C(C(O)CC(N)=O)NC(=O)C(C(O)C(O)c2ccc(O)cc2)NC(=O)C2CC(O)CN2C(=O)C(C(C)O)NC1=O (stereo not drawn) [Compound IA] (X1-[ξOrn(4,5-diOH)]T[Hyp][ξhTyr(βξ-OH,γξ-OH)][X2][ξPro(3ξ-OH,4ξ-Me)]; lactam 1-C; configuration not given here) | No cysts could be found | > 99%
2 | CCCCCCCCOc1ccc(C(=O)NC2C[C@@H](O)[C@@H](O)NC(=O)C3[C@@H](O)[C@@H](C)CN3C(=O)C(C(C)O)NC(=O)C([C@H](O)[C@@H](O)c3ccc(O)cc3)NC(=O)C3C[C@@H](O)CN3C(=O)C(C(C)O)NC2=O)cc1 (stereo partly drawn) [Compound IBii, 1-[(4R,5R)-4,5-dihydroxy-N²-[4-(octyloxy)benzoyl]-L-ornithine]echinocandin B] ({Benzoyl(4-octyloxy)}-[ξOrn(4R-OH,5R-OH)][ξT][ξPro(4R-OH)][ξhTyr(3S-OH,4S-OH)][ξT][X3]; lactam 1-C) | – | approximately 84%
